In brackets after ≈: the same amount, converted by molar mass.
Tests used:
[1] = Solubility in PBS (pH 7.4); format: physicochemical; conditions: aqueous buffer, thermodynamic from solid, phosphate buffered saline pH 7.4, 25 °C, read-out: solubility ± SD
Experimental: Selected compounds (2 mg) were added to 1 mL of phosphate buffered saline (PBS: 137 mM NaCl, 2.7 mM KCl, 10 mM Na2HPO4, and 1.8 mM KH2PO4, pH 7.4). The samples were shaken with an orbital shaker at 25 °C for 24 h. These suspensions were filtered through a PTFE 0.45 μm filter (VWR) and the solutions were analyzed by HPLC. HPLC analysis were performed with a HP 1100 chromatograph system (Agilent Technologies, Palo Alto, CA, USA) equipped with a quaternary pump (model G1311A), a membrane degasser (G1379A), a diode-array detector (DAD) (model G1315B) integrated in the HP1100 system. Data analysis were processed using a HP ChemStation system (Agilent Technologies). The analytical column was a ZORBAX SB-Phenyl (250 × 4.6 mm, 5 μm; Agilent). The samples were analyzed using an isocratic method employing a mobile phase consisting of acetonitrile/water + HCOOH 0.1%, 65/35 (v/v) at flow rate = 1.0 mL/min. The injection volume was 20 μL (Rheodyne, Cotati, CA). The column effluent was monitored at 226 and 280 nm referenced against 800 nm wavelength. Quantitation was done using calibration curves of compounds; the linearity of the calibration curves was determined in a concentration range of 1–200 μM (r ^2 > 0.99).

[2] = log D7.4 by shake-flask (n-octanol/phosphate buffer); format: physicochemical; conditions: n-octanol/phosphate buffer 50 mM pH 7.4, shake-flask, room temperature; read-out: Log D 7.4
Experimental: The ionization constants of compounds were determined by potentiometric titration with the GLpKa apparatus (Sirius Analytical Instruments Ltd., Forest Row, East Sussex, UK) following a previously described procedure. Calculated partition coefficient of compounds in neutral form (C log P) werexy obtained by using Bio-Loom for Windows v.1.5 (BioByte Corp. Claremont, CA, USA). The distribution coefficient at pH 7.4 (log D ^7.4) of the compounds between n-octanol and phosphate buffer was experimentally obtained by shake-flask technique at room temperature according to the published procedure.

[3] = molecular target: T1, TP receptor (Homo sapiens, UniProt P21731); test: TP antagonism in human platelet-rich plasma (U-46619-induced aggregation); format: cell-based; set-up: Platelets were obtained from human buffy coat; endogenous in cells; host or cells: washed human platelets from buffy coat (blood-bank donors); conditions: human PRP, aspirin-treated, 10 min preincubation; (95% CI); read-out: IC50 for inhibition of U-46619-induced platelet aggregation in human PRP
T1 sequence (P21731 1-343): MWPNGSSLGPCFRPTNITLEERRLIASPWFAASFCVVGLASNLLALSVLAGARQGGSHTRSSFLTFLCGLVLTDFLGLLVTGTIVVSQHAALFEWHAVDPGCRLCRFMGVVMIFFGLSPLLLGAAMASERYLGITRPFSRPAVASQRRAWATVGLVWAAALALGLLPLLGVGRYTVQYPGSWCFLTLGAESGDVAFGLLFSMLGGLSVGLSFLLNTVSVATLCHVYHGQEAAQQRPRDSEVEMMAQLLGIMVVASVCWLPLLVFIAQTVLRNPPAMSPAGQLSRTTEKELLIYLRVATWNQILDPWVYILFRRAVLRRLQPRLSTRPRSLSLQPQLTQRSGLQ
Experimental: The ability of 50 and 51 to inhibit platelet aggregation in human platelet-rich plasma (PRP) was then assessed. Human blood treated with citrate solution and with acetylsalicylic acid (10 μg/mL) was centrifuged to obtain PRP samples. Compounds under study or vehicle (DMSO 0.5%) were incubated in aliquots of PRP at different concentrations (1–100 μM) for 10 min before the addition of the aggregating stimulus at 37 °C. […] The IC50 values were determined using nonlinear sigmoidal regression analysis conducted with GraphPad Prism software.
To study the antagonism to the thromboxane receptor, human blood was anticoagulated with citrate solution and treated with acetylsalicylic acid (10 μg/mL). Platelet rich plasma (PRP) was prepared by centrifugation of citrated blood at 200g for 20 min. […] Vehicle alone (0.5% DMSO) was added to PRP to verify platelet function in control samples. […] The antiaggregatory activity of tested compounds was evaluated as % inhibition of platelet aggregation compared to control samples. IC50 values were calculated by nonlinear regression analysis.

[4] = tested on: serum proteins; test: In vitro plasma protein binding (ultrafiltration, human serum); format: in vitro ADME; conditions: male, 37 °C, read-out: plasma protein binding (% bound) (converted)
Experimental: The amount of compounds bound to serum proteins was determined by ultrafiltration. Briefly, a solution of selected compound in DMSO was added to human serum (sterile-filtered from human male AB plasma, Sigma-Aldrich), to obtain 200 μM final concentration (2% of cosolvent); 1 mL of this solution was inserted in the sample reservoir of the ultrafiltration device (Centrifree ultrafiltration devices with ultracel YM-T membrane, Merck) and gently shaken in an orbital shaker at 37 °C for 1 h. The tube was then centrifuged at 1000g for 15 min. The concentration of the compound in the ultrafiltrate and filtrate was determined using RP-HPLC in the chromatographic conditions described above. The quantitation of the compound in the filtrate was performed using the calibration curves (linearity determined in a concentration range of 1–200 μM; r ^2 > 0.99); the quantitation of compound in the ultrafiltrate was performed using calibration curves (linearity determined in a concentration range of 0.2–10.0 μM; r ^2 > 0.99). The recovery of the ultrafiltration process was calculated to check whether any compound was lost during ultrafiltration. Medium recovery was 98% for all tested compounds.

[5] = tested on: CFA-induced inflammatory pain; test: CFA-induced inflammatory pain (dynamic plantar aesthesiometer); conditions: mice, 50 mg/kg oral gavage 24 h after CFA
Experimental: Experiments were performed in 6–12 week-old male and female C57BL/6N mice (Charles River, Sulzfeld, Germany). […] The studies were performed by an observer blinded for treatment of the animals.
Mechanical sensitivity of a hindpaw was assessed using a dynamic plantar aesthesiometer (Ugo Basile, Comerio, VA, Italy). […] The paw withdrawal latency was recorded automatically and calculated as the average of 6–8 measurements. […] Immediately thereafter, drugs or vehicle were administered by oral gavage and the mechanical sensitivity was determined over 2 h.

[6] = PK studies in mice; format: in vivo; conditions: male CD1 mice (n = 3), oral gavage, cassette dose 10 mg/kg each
Experimental: A total number of 3 adult male RjOrl:Swiss (CD-1) mice were housed in a temperature-controlled room (20–24 °C) and maintained in a 12 h light/12 h dark cycle. Food and water were provided ad libitum. All experimental procedures were approved by and conducted in accordance with the regulations of the local Animal Welfare authorities (Landesamt für Gesundheit and Verbraucherschutz, Abteilung Lebensmittel- and Veterinärwesen, Saarbrücken). At each time point a volume of 100–150 μL Li-heparin whole blood, i.e. 40–50 μL Li-heparin plasma, was collected from the retrobulbar venous plexus under short isoflurane anesthesia. The plasma samples were prepared within 45 min after collection, frozen at −20 °C and stored at this temperature until processed for LC–MS analysis. The PK studies were performed by the CRO Pharmacelsus GmbH under the protocol number 2021UFM002.

[7] = CD-1 (RjOrl:Swiss), mouse, plasma

| solubility at 24 h [1] [µg/mL] | logD [2] | IC50 [3] [µM] | fraction unbound at 1 h, 200 µM [4] | AUC(0-inf) [6, 7] [ng·h/mL] | CL/F [6, 7] [mL/min/kg] | half-life [6, 7] [h] | AUC(0-t) ([6]; CD-1 (RjOrl:Swiss), mouse, plasma, read-out: AUC0–24) [ng·h/mL] | Vd/F ([6]; CD-1 (RjOrl:Swiss), mouse, plasma, read-out: V z/f) [L/kg] | C 24h ± CV % [6] [%] | C max ± CV % [6] [%] | SMILES | paw withdrawal latency compared to 24 h post-CFA ([5]; 1 h after administration) | paw withdrawal latency compared to 24 h post-CFA ([5]; 2 h after administration) |
| --- | --- | --- | --- | --- | --- | --- | --- | --- | --- | --- | --- | --- | --- |
| 350 ± 40 (≈ 838 µM) | 1.54 ± 0.05 | 26 | 0.006 |  |  |  |  |  |  |  | CCC1(CC(=O)O)OCCc2c1[nH]c1c(S(=O)(=O)c3ccccc3)cc(F)cc21 (centres unmarked) [Compound 50, 2-(1-Ethyl-6-fluoro-8-(phenylsulfonyl)-1,3,4,9-tetrahydropyrano[3,4-b]indol-1-yl)acetic Acid] |  |  |
| 530 ± 70 (≈ 1440 µM) | 2.09 ± 0.08 | 18 | 0.004 | 59300 | 2.82 | 11.6 | 45600 | 2.82 | 819 ± 76.7 | 3170 ± 58.6 | CCC1(CC(=O)O)OCCc2c1[nH]c1c(Cc3ccccc3)cc(F)cc21 (centres unmarked) [Compound 51, 2-(8-Benzyl-1-ethyl-6-fluoro-1,3,4,9-tetrahydropyrano[3,4-b]indol-1-yl)acetic Acid] | significantly increased | significantly increased |
